# Biological target: T1, ABHD17B (Homo sapiens, UniProt Q5VST6)
# T1 construct: hABHD17B recombinantly expressed in HEK293T cells (membrane proteome)
# T1 sequence (Q5VST6 1-288): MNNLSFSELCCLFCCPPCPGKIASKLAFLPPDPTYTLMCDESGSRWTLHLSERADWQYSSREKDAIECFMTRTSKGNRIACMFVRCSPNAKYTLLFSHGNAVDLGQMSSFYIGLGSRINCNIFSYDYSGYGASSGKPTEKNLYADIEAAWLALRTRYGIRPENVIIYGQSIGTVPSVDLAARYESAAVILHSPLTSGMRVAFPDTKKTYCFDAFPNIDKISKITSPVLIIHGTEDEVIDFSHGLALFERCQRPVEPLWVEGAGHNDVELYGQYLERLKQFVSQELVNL
# Assay: competitive gel-based ABPP with FP-Rh in transfected HEK293T membrane proteome
# Type: biochemical
substance,measurement,value
ABD778,IC50,76 nM

# Source: article doi:10.1101/2025.03.20.644389, “In vivo validation of the palmitoylation cycle as a therapeutic target in NRAS-mutant cancer” (bioRxiv, 2025)
